The values below come from article PMC6934184, “Selective DNA-PKcs inhibition extends the therapeutic index of localized radiotherapy and chemotherapy” (The Journal of Clinical Investigation, 2019).

In the test the target is T1, CDK2/cyclin E1 (Homo sapiens, UniProt P24941).
T1 construct: purchased Thermo Fisher Scientific (Life Technologies) SelectScreen
Kind of test: SelectScreen LanthaScreen. Format: binding. The conditions noted are these: 1 µM. The method in brief: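 Percent values come from Thermo SelectScreen profiling of NU5455, combining activity and binding assays. CSF1R was run in Z'LYTE format at Km app ATP, and CAMK1 in Adapta format with ATP listed at 10.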
(Time-resolved FRET reads energy transfer from a long-lived donor to a nearby acceptor.)

Take `CN(C(=O)CN1CCOCC1)c1ccc2sc3c(-c4cccc5c(=O)cc(N6CC7CCC(C6)O7)oc45)cccc3c2c1` [NU5455]: the “% displacement” value stood at 2.7%.
